In patent US8895753B2, “S1P receptor modulating agent” (Meiji Seika Pharma Co., Ltd., priority 2011, dated 2014):
Each block holds one compound with its values, some of them ahead of it.

Key:
enterobacterium = assay: Stability against enterobacterium (feces / cecum homogenates); type: in vitro ADME; conditions: cynomolgus monkey feces and rat cecum homogenates, 3 and 30 μM, 37° C., 24 hours; all conditions
Procedure: A culture medium was added to fresh feces of a cynomolgus monkey and rat cecum to prepare homogenates. To a homogenate was added the compound of the Example 2, or 1-{4-[5-(4-isopropoxyphenyl)-1,2,4-oxadiazol-3-yl]benzyl}azetidine-3-carboxylic acid (the compound of the Example 29 of Non-Patent Document 5) adjusted at a concentration of 3 and 30 μM, and the mixture was anaerobically cultured at 37° C. for 24 hours. After the cultivation, the concentration of the residual compound in the culture medium was measured on LC-MS.

electrocardiogram = assay: Evaluation of electrocardiogram in a rat (under anesthesia); type: in vivo
Procedure: Under anesthesia, femoral artery was cannulated in a 7-11-week-old male SD rat (Charles River Laboratories Japan Inc.) that had been reared for more than one week, connected to a polygraph (NIHON KODEN) via a pressure transducer. Without consciousness, a vehicle (dimethylsulfoxide) or a test compound was intravenously administered. After the administration, blood pressure, the heart rate, and electrocardiogram were monitored for about 10 minutes.

Human S1P4 receptor = target: T1, Human S1P4 receptor (Homo sapiens, UniProt O95977); assay: Agonist activity at an S1P4 receptor (calcium influx); type: cell-based; conditions: at 1000 nM; read-out: activity at S1P4 receptor (elevation of intracellular calcium)
T1 sequence (O95977 1-384): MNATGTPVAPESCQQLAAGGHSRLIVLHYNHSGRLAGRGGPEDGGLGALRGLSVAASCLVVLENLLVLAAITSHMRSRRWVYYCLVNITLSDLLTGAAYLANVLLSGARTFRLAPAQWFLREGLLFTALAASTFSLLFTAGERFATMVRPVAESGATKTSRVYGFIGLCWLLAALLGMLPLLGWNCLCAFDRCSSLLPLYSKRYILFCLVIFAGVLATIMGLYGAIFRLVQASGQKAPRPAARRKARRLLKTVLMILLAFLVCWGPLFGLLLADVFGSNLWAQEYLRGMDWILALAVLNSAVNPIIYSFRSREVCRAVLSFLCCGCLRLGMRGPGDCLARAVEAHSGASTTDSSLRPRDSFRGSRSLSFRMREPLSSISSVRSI
Procedure: By using Human S1P4 receptor expressing cells (Multispan Inc. CG1052-1), the elevation of intracellular calcium concentration via agonist activity by the addition of 1000 nM was measured by Fret method (fluorescence resonance energy transfer).

Human S1P1 receptor [1] = target: T2, Human S1P1 receptor (Homo sapiens, UniProt P21453); assay: Agonist activity at an S1P1 receptor ([35S]-GTPγS exchange reaction, membrane fractions); type: biochemical; conditions: read-out: EC50, agonist activity at S1P1 receptor (GTP exchange reaction)
T2 sequence (P21453 whole entry): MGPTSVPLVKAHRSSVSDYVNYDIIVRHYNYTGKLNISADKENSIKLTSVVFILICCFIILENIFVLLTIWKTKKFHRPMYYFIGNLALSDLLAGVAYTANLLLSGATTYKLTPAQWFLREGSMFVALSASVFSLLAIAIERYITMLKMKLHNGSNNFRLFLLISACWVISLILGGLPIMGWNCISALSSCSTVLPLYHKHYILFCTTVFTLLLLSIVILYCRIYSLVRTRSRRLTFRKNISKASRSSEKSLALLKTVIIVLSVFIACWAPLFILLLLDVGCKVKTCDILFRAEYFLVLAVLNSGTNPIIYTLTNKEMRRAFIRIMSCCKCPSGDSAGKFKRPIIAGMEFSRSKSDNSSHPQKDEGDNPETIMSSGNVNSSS
Procedure: (§1) By using membrane fractions prepared from a human S1P1 receptor expressing cells (Multispan Ltd.), the agonist activity of each test compound was measured by [^35S]-GTPγS exchange reaction in accordance with a standard procedure (Methods in Molecular Biology, Vol. 552, p 143-151 (2009)), and EC50 (nM) of each test compound was computed.

Human S1P3 receptor = Human S1P3 receptor (Homo sapiens, UniProt Q99500); assay: Agonist activity at an S1P3 receptor ([35S]-GTPγS exchange reaction at 1000 nM); type: biochemical; conditions: read-out: percent of the maximal agonist activity at S1P3 receptor
Human S1P3 receptor, sequence (Q99500 whole entry): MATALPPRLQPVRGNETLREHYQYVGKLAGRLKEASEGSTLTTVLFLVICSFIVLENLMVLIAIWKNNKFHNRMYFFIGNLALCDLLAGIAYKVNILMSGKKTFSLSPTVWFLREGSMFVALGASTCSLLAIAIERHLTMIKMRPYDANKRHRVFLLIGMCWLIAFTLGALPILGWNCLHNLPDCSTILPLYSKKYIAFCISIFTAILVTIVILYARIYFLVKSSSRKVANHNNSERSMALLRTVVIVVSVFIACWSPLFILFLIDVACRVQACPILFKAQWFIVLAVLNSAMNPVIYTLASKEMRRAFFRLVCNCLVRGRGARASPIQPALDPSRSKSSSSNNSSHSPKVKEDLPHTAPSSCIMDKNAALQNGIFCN
Procedure: as §1
By using membrane fractions prepared from Human S1P3 receptor expressing cells (Multispan Inc.), the agonist activity of the compound in the present invention was measured by a [^35S]-GTPγS exchange reaction at 1000 nM by the similar method of the Experimental Example 2.

Human S1P1 receptor [2] = target: T2, Human S1P1 receptor; assay: Agonist activity at an S1P1 receptor (reporter assay, EDG1-bla/U2OS cells); type: cell-based; design: host or cells: U2OS (EDG1-bla/U2OS); conditions: S1P maximum response = 100%
Procedure: Human S1P1 receptor gene recombinant EDG1-bla/U2OS cells (Life Technologies Japan Ltd.) were plated in a 96-well half-sized clear bottom black plate at a density of 10000 cells/32 μL/well, and then the plate was incubated at 37° C. in a 5% CO2 incubator for 48 hours. A culture medium containing each test compound prepared as a 5× concentrate was added at 8 μL/well, and the plate was incubated at 37° C. in a 5% CO2 incubator for 5 hours. The substrate (LiveBLAzer™-FRET B/G substrate (CCF4-AM), Life Technologies Japan Ltd.) prepared as a 6× concentrate was added at 8 μL into each well, and the plate was incubated at room temperature for 2 hours in the dark. The fluorescence intensity of each well was detected using a bottom-reading fluorescence microplate reader (EnVision: ParkinElmer) at one excitation wavelength and 2 wavelengths for fluorescence emission (Ex409 nm, Em460 nm, Em530 nm). The intensity ratio of fluorescence at 460 nm/530 nm was calculated for each well. The maximum response ratio confirmed from the dose response of SIP was expressed as 100%. The concentration of a test compound required to stimulate 50% of its maximal activation was computed as EC50 (nM).

blood lymphocytic cells = assay: Suppressive effect on circulating lymphocytic cells in a rat; type: in vivo; conditions: 6 hours after administration
Procedure: Under anesthesia, a femoral artery was cannulated in a 7-11-week old male SD rat (Charles River Laboratories Japan Inc.) that had been reared for more than one week. A vehicle (in case of intravascular administration, 10% PEG300-0.01 M KOH saline was used, and in case of oral administration, 0.5% hydroxymethyl cellulose solution was used) or a test compound was administered intravascularly or by gavage administration. Right before the administration or 2, 4, 6 hours after the administration, the number of blood lymphocytic cells was counted by using an automated hematology analyzer XT-1800i or XT-2000i (Sysmex). The count of lymphocytic cells right before the administration was regarded as 100%, and the dose of the test compound that reduced blood lymphocytic cells by 50% of vehicle-treated group at the point of 6 hours after the administration was calculated as ED50 (mg/kg body weight).

heart rate = assay: Evaluation of the heart rate in a rat (under consciousness); type: in vivo; conditions: vascular administration
Procedure: Under anesthesia, femoral artery was cannulated in a 7-11-week old male SD rat (Charles River Laboratories Japan Inc.) that had been reared for more than one week. Arterial cannula was connected to a pressure transducer, and under consciousness changes in the heart rate were monitored with a polygraph (Nihon Kohden) up to 4 hours after the vascular administration of the vehicle (10% PEG300-0.01M KOH saline) or the test compounds. The dose that lowered the heart rate by 20% was computed as TD20 (mg/kg body weight).

[3] = system: electrocardiogram / monophasic action potential (MAP); assay: Evaluation of cardiovascular system in a guinea pig; type: in vivo; conditions: anesthetized guinea pig, 0.1 mg/kg body weight, infusion
Source text: Under anesthesia with 0.5 to 1% of halothane, to a male Hartley guinea-pig (Japan SLC, Inc.) that had been reared for more than one week, a catheter for administration of a drug solution was placed into the left jugular vein, a monophasic action potential (MAP) measurement/pacing catheter was placed into the endothelial lining of the right ventricle, a catheter for measuring blood pressure was placed into the left carotid artery, and the measurement of body surface electrocardiogram (lead II) was conducted. The drug solution was infused for 10 minutes and the measurement was carried out over 60 minutes. Also, 5, 10, 15, 20, 30, 45 and 60 minutes after the administration of the drug solution, pacing was performed (200, 240, 300 bpm), and monophasic action potential (MAP) was measured.

[4] = anesthetized rat, intravenous 0.1 mg/kg body weight

SMILES: CC(C)Oc1ccc(-c2nc(-c3ccc(CN4CC(C(=O)O)C4)cc3)no2)cc1 [1-{4-[5-(4-isopropoxyphenyl)-1,2,4-oxadiazol-3-yl]benzyl}azetidine-3-carboxylic acid]
- residual compound after anaerobic culture with homogenate (enterobacterium): ≤ 2%
- cardiac arrest (cases) (electrocardiogram; [4]): 1 out of 3
- duration of continuous cardiac arrhythmia (AV block) (electrocardiogram; [4]): 170 s

- activation at 1 µM (Human S1P4 receptor): < 20%
- EC50 (Human S1P1 receptor [1]): ≤ 10 nM
- Emax at 1 µM (Human S1P3 receptor): < 20%
- EC50 (Human S1P1 receptor [2]): ≤ 10 nM
SMILES: COc1cc(-c2ncc(-c3ccc(OC(C)C)c(Cl)c3)s2)ccc1CN1CC(C(=O)O)C1 [Example 64, 1-(4-(5-(3-chloro-4-isopropoxyphenyl)thiazol-2-yl)-2-methoxybenzyl)azetidine-3-carboxylic acid]

SMILES: CCCCCCCCc1ccc(CCC(N)(CO)CO)cc1 [Fingolimod, reference compound]
- ED50, dose reducing blood lymphocytic cells by 50% (blood lymphocytic cells; gavage administration): 0.2 mg/kg body weight
- ED50, dose reducing blood lymphocytic cells by 50% (blood lymphocytic cells; vascular administration): 0.06 mg/kg body weight
- TD20, dose that lowered the heart rate by 20% (heart rate; conscious rat): 0.3 mg/kg body weight
- TD20/ED50 ratio (heart rate; rat): 5
- MAP90 prolongation effect [3]: recognized
- prolonged QT [3]: recognized

SMILES: CCCCCCCCc1ccc(CCC(N)(CO)COP(=O)(O)O)cc1 (centres unmarked) [phosphorylated form of Fingolimod]
- duration of continuous cardiac arrhythmia (AV block) (electrocardiogram; rat, in vivo, iv, 0.1 mg/kg): 120 s
